Here are results for 2 molecules from paper PMC8342005, “A two-step resin based approach to reveal survivin-selective fluorescent probes” (RSC Chemical Biology, 2020).

The structures appear in SMILES notation.

For experiment [1], the target named is T1, survivin (Homo sapiens, UniProt O15392).
T1 construct: gene BIRC5; His6-tagged full length survivin
Kind of experiment: fluorescence intensity titration of the intrinsically fluorescent ligand with survivin; also CONA bead imaging and affinity resin capture. Type of experiment: binding.

Experiment [2] addresses T1, survivin. Kind of experiment: fluorescence intensity titration of the intrinsically fluorescent ligand with survivin ([…] fit); also CONA bead imaging, affinity resin capture, native PAGE. The format is binding.

T1 sequence (O15392 whole entry): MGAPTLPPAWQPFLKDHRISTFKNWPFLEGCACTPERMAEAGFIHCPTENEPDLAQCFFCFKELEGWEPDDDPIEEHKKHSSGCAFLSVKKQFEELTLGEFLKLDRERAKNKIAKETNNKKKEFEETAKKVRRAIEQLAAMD

On survivin [1], `COc1cc2[nH]c1/C=C1/C=CC(=N1)CCCCCCCCCc1ccc-2[nH]1` [compound 1, cyclononylprodigiosin] registered a Kd of 149 ± 8.3 µM. For `CCCCCC1=C/C(=C/c2[nH]c(-c3ccc[nH]3)cc2OC)N=C1C` [compound 2, prodigiosin], binding on survivin [2] was characterised by a dissociation constant (Kd) of 11.5 ± 3.1 µM.

In general, Kd refers to the free concentration of one partner at which half of the binding sites on the other are occupied at equilibrium, for simple one-to-one binding. High values mean a looser complex, low ones a tighter complex.
